Experimental data taken from the NIST ThermoML archive (doi:10.1016/j.jct.2015.02.024).

Columns and labels:
[1] = for viscosity / mass density: 101.33 kPa, Liquid; for viscosity: Falling or rolling sphere viscometry; for mass density: Vibrating tube method
[2] = activity coefficient (dimensionless); of the first substance listed, at infinite dilution; xn = mol fraction of the nth substance listed; conditions: 101 kPa, Liquid, Chromatography, x1 = 0

C[N+]1(CCCO)CCOCC1.O=S(=O)([N-]S(=O)(=O)C(F)(F)F)C(F)(F)F
[1]
Conditions | mass density [kg/m3] | viscosity [mPa·s]
298.15 K | 1536.09 | 1183
308.15 K | 1527.32 | 565.7
318.15 K | 1518.74 | 280.7
328.15 K | 1510.14 | 156.1
338.15 K | 1501.59 | 94.49
348.15 K | 1493.08 | 61.14
358.15 K | 1484.63 | 37.79
368.15 K | 1476.24 | 27.09

[1], DTA
Conditions | Glass transition temperature [°C] | Normal melting temperature [°C]
Crystal | – | 14
Glass | -52.5 | –

C=CCCCCCC [oct-1-ene] + C[N+]1(CCCO)CCOCC1.O=S(=O)([N-]S(=O)(=O)C(F)(F)F)C(F)(F)F
[2]
Conditions | activity coefficient
318.15 K | 133
328.15 K | 117
338.15 K | 106
348.15 K | 94.6
358.15 K | 85.2
368.15 K | 77.2

CCCCCCCC [octane] + C[N+]1(CCCO)CCOCC1.O=S(=O)([N-]S(=O)(=O)C(F)(F)F)C(F)(F)F
[2]
Conditions | activity coefficient
318.15 K | 315
328.15 K | 265
338.15 K | 230
348.15 K | 199
358.15 K | 172
368.15 K | 152

CCCC(C)=O [pentan-2-one] + C[N+]1(CCCO)CCOCC1.O=S(=O)([N-]S(=O)(=O)C(F)(F)F)C(F)(F)F
[2]
Conditions | activity coefficient
318.15 K | 1.24
328.15 K | 1.29
338.15 K | 1.34
348.15 K | 1.4
358.15 K | 1.44
368.15 K | 1.48

CCC(=O)CC [pentan-3-one] + C[N+]1(CCCO)CCOCC1.O=S(=O)([N-]S(=O)(=O)C(F)(F)F)C(F)(F)F
[2]
Conditions | activity coefficient
318.15 K | 1.28
328.15 K | 1.33
338.15 K | 1.4
348.15 K | 1.45
358.15 K | 1.52
368.15 K | 1.57

CCCO [propan-1-ol] + C[N+]1(CCCO)CCOCC1.O=S(=O)([N-]S(=O)(=O)C(F)(F)F)C(F)(F)F
[2]
Conditions | activity coefficient
318.15 K | 2.06
328.15 K | 2.01
338.15 K | 1.96
348.15 K | 1.92
358.15 K | 1.88
368.15 K | 1.84
